Experimental data published in publication PMC10353390, “Biological and Structural Analyses of New Potent Allosteric Inhibitors of HIV-1 Integrase” (Antimicrobial Agents and Chemotherapy, 2023).

How the values were obtained:
HIV-1 IN = target: T1, HIV-1 IN (Human immunodeficiency virus type 1 group M subtype B, UniProt P12497); assay: HTRF IN multimerization assay; assay type: biochemical; details: mean ± SD
T1 construct: made in house
Excerpt: A key property of INLAIs is the ability to promote HIV-1 IN homo-multimerization ([39][–][42]). […] The maximal signal (plateau) in our IN aggregation assay corresponds to the highest HTRF signal increase under saturating INLAI concentration, relative to baseline level. Thus, MUT916, MUT884, MUT871, and MUT872 increased HIV-1 IN aggregation 3.7 to 4.4-fold, while BDM-2, BI-224436, and S-I-82 did so 5 to 6-fold (Table 1).

HXB2 HIV-1 strain = assay: Multiple-round infection assay in MT4 cells, HXB2; assay type: cell-based; details: Human immunodeficiency virus 1, HXB2; multiple-round infection, MT4 cells; mean ± SD, n > 5; read-out: EC50 HXB2
Experimental: Antiretroviral activity of BDM-2 and its analogs was first evaluated in lymphoblastoid cell line MT4 and in primary human T lymphocytes using NL4-3 and HXB2 laboratory HIV-1 isolates.
(§1) MT4 cells growing exponentially at the density of 10^6/mL were infected with HIV-1 strain NL4-3 at a multiplicity of infection (MOI) of 0.001 for 2 h in the presence of different concentrations of compounds, and the CellTiter-Glo luminescent reagent (Promega) was used to quantify cell viability as described previously ([12]).

NL4-3 HIV-1 strain = assay: Multiple-round infection assay in MT4 cells, NL4-3; assay type: cell-based; details: MT4 cells
[1] = Cytotoxicity assay in MT4 cells; assay type: cell-based; details: human, MT4 cells (proliferating human T-cell line), CellTiter-Glo
Excerpt: Growth inhibition was monitored in a proliferating human T-cell line (MT4) with different concentrations of compounds, using the CellTiter-Glo luminescent reagent (Promega), as previously described ([12]).

[2] = test system: VSV-G-pseudotyped NL4-3Δenv-luc; assay: microbe, parasite or virus in culture; assay type: cell-based, HIV-1
[3] = test system: recombinant NL4-3 viruses with polymorphisms at IN positions 124 and 125; assay: Multiple-round infection of MT4 cells with recombinant NL4-3 viruses polymorphic at IN positions 124 and 125; assay type: cell-based, HIV-1
Excerpt: Located on the HIV-1 IN CCD dimerization interface, the principal INLAI binding pocket overlaps with a hot spot of amino acid sequence polymorphism involving IN residues 124 and 125 ([16]). To test if the new INLAIs maintained antiviral activity against major polymorphisms, we introduced all major combinations of residues found in circulating HIV-1 strains at positions 124 and 125 into NL4-3 HIV-1 molecular clone. In total, we evaluated 15 such combinations that collectively covered 98% of all HIV-1 clade polymorphisms involving these positions ([48]). To gauge effects on the antiviral activity, we calculated the EC50 fold change (FC) relative to wild type NL4-3 HIV-1 strain that features Thr124 and Thr125 (TT; specific polymorphisms are referred to by a single letter amino acid code).
as §1

[4] = test system: primary HIV-1 isolates with polymorphisms at IN positions 124 and 125; assay: Multiple-round infection of MT4 cells with primary HIV-1 isolates polymorphic at IN positions 124 and 125; assay type: cell-based; details: primary isolate
Experimental: Next, we evaluated the potency of the BDM-2 series of INLAIs against several primary HIV-1 isolates with polymorphisms at IN positions 124 and 125.
as §1

[5] = test system: HIV-1 strains resistant to INSTIs, NRTIs, NNRTIs or PIs; assay type: cell-based
Experimental: To this end, we used both recombinant viruses constructed by introducing described drug resistance mutations into NL4-3 HIV-1 clone as well as drug-resistant clinical HIV-1 isolates.
as §1

[6] = test system: NL4-3 HIV-1 with INLAI-selected IN single point mutations; assay type: cell-based
[7] = target: HIV-1 IN-LEDGF/p75 interaction (Human immunodeficiency virus type 1 group M subtype B, UniProt P12497); assay: biochemical
[8] = target: CCD of HIV-1 IN and IBD of LEDGF/p75 (Human immunodeficiency virus type 1 group M subtype B, UniProt P12497); assay: biochemical
[9] = INSTI-resistant, NL4-3 background

In the case of `Cc1ccc(C2CC2)c(-c2ccc3c(c2)CCCO3)c1[C@H](OC1CC1)C(=O)O` [MUT872], the AC50 (HIV-1 IN; concentration for 50% maximum activation of multimerization) is reported as 0.043 ± 0.011 µM, the “IN multimerization Plateau” value (HIV-1 IN; maximum multimerization reached versus baseline) is reported as 440 ± 48% and the EC50 (HXB2 HIV-1 strain) is reported as 0.018 ± 0.001 µM. For the same molecule, the EC90 (NL4-3 HIV-1 strain; Human immunodeficiency virus 1, NL43, multiple-round infection, from dose response curves, read-out: EC90 NL4-3) was 0.061 ± 0.019 µM, the EC50 (NL4-3 HIV-1 strain; Human immunodeficiency virus 1, NL43, multiple-round infection, mean ± SD, n > 5, read-out: EC50 NL4-3) was 0.045 ± 0.012 µM and the “Selectivity index CC50/EC50 NL4-3” value (NL4-3 HIV-1 strain) was 3,088. For the same molecule, the CC50 [1] was 139 ± 29 µM, the “EC50 ratio (single/multiple-round infection)” value [2] was 196 and the EC50 ([2]; Human immunodeficiency virus 1, NL43, MT4, read-out: EC50 in single-round infection) was 8.8 ± 0.3 µM. The “Fold change in EC50 relative to parental NL4-3, AA” value ([3]; recombinant NL4-3, IN 124/125 AA) was 1, the “Fold change in EC50 relative to parental NL4-3, AM” value ([3]; recombinant NL4-3, IN 124/125 AM) was 0.3 and the “Fold change in EC50 relative to parental NL4-3, AT” value ([3]; recombinant NL4-3, IN 124/125 AT) was 1. For the same molecule, the “Fold change in EC50 relative to parental NL4-3, AV” value ([3]; recombinant NL4-3, IN 124/125 AV) was 0.5, the “Fold change in EC50 relative to parental NL4-3, GA” value ([3]; recombinant NL4-3, IN 124/125 GA) was 2 and the “Fold change in EC50 relative to parental NL4-3, GT” value ([3]; recombinant NL4-3, IN 124/125 GT) was 2. For the same molecule, the “Fold change in EC50 relative to parental NL4-3, NA” value ([3]; recombinant NL4-3, IN 124/125 NA) was 1, the “Fold change in EC50 relative to parental NL4-3, NT” value ([3]; recombinant NL4-3, IN 124/125 NT) was 1 and the “Fold change in EC50 relative to parental NL4-3, NV” value ([3]; recombinant NL4-3, IN 124/125 NV) was 1. The “Fold change in EC50 relative to parental NL4-3, SA” value ([3]; recombinant NL4-3, IN 124/125 SA) was 1, the “Fold change in EC50 relative to parental NL4-3, ST” value ([3]; recombinant NL4-3, IN 124/125 ST) was 1 and the “Fold change in EC50 relative to parental NL4-3, TA” value ([3]; recombinant NL4-3, IN 124/125 TA) was 1. The “Fold change in EC50 relative to parental NL4-3, TM” value ([3]; recombinant NL4-3, IN 124/125 TM) was 0.2, the “Fold change in EC50 relative to parental NL4-3, TV” value ([3]; recombinant NL4-3, IN 124/125 TV) was 1 and the “Fold change in EC50 relative to parental NL4-3, CAM2BBY (CRF02)” value ([4]; IN 124/125 AA) was 1. The “Fold change in EC50 relative to parental NL4-3, E0836M4 (D)” value ([4]; IN 124/125 AA) was 1, the “Fold change in EC50 relative to parental NL4-3, KER2008 (A)” value ([4]; IN 124/125 AA) was 1 and the “Fold change in EC50 relative to parental NL4-3, NP1525 (CRF01)” value ([4]; IN 124/125 AA) was 1. The “Fold change in EC50 relative to parental NL4-3, NP1695 (CRF02)” value ([4]; IN 124/125 AA) was 1, the “Fold change in EC50 relative to parental NL4-3, TZA125 (C)” value ([4]; IN 124/125 AA) was 0.4 and the “Fold change in EC50 relative to parental NL4-3, KSM4030 (A)” value ([4]; IN 124/125 GA) was 2. The “Fold change in EC50 relative to parental NL4-3, vGA (C)” value ([4]; IN 124/125 GA) was 4, the “Fold change in EC50 relative to parental NL4-3, 99ET14 (C)” value ([4]; IN 124/125 NA) was 1 and the “Fold change in EC50 relative to parental NL4-3, NP1538 (B)” value ([4]; IN 124/125 NA) was 2. The “Fold change in EC50 relative to parental NL4-3, vNA_1 (B)” value ([4]; IN 124/125 NA) was 1, the “Fold change in EC50 relative to parental NL4-3, vNA_2 (CRF02)” value ([4]; IN 124/125 NA) was 2 and the “Fold change in EC50 relative to parental NL4-3, vNV (B)” value ([4]; IN 124/125 NV) was 1. The “Fold change in EC50 relative to parental NL4-3, vSA_1 (B)” value ([4]; IN 124/125 SA) was 2, the “Fold change in EC50 relative to parental NL4-3, vSA_2 (CRF02)” value ([4]; IN 124/125 SA) was 2 and the “Fold change in EC50 relative to parental NL4-3, vTA_1 (B)” value ([4]; IN 124/125 TA) was 2. The “Fold change in EC50 relative to parental NL4-3, vTA_2 (CRF02)” value ([4]; IN 124/125 TA) was 2, the “Fold change in EC50 relative to NL4-3, E92Q” value [5, 9] was 1 and the “Fold change in EC50 relative to NL4-3, G140S” value [5, 9] was 1. For the same molecule, the “Fold change in EC50 relative to NL4-3, G140S/Q148H” value [5, 9] was 1, the “Fold change in EC50 relative to NL4-3, N155H” value [5, 9] was 1 and the “Fold change in EC50 relative to NL4-3, Q148H” value [5, 9] was 1. The “Fold change in EC50 relative to NL4-3, Y143R” value [5, 9] was 0.5, the “Fold change in EC50 relative to NL4-3, NLAY351717” value ([5]; NRTI-resistant clone) was 1 and the “Fold change in EC50 relative to NL4-3, NLAY351753” value ([5]; NRTI/NNRTI-resistant clone) was 1. The “Fold change in EC50 relative to NL4-3, K103N/Y181C” value ([5]; NRTI/NNRTIs group, NL4-3 background) was 1, the “Fold change in EC50 relative to NL4-3, ARP-4595” value ([5]; PI-resistant virus) was 1 and the “Fold change in EC50 relative to NL4-3, ARP-4596” value ([5]; PI-resistant virus) was 1. The “Fold change in EC50 relative to NL4-3, ARP-11801” value ([5]; PI-resistant virus) was 2, the “Fold change in EC50 relative to NL4-3, ARP-11803” value ([5]; PI-resistant virus) was 1 and the “Fold change in EC50 relative to NL4-3, ARP-11807” value ([5]; PI-resistant virus) was 1. For the same molecule, the “Fold change in EC50 relative to NL4-3, ARP-11808” value ([5]; PI-resistant virus) was 2, the “EC50 fold change compared to wild type NL4-3, A128T” value [6] was 7 and the “EC50 fold change compared to wild type NL4-3, H171Q” value [6] was 1. For the same molecule, the “EC50 fold change compared to wild type NL4-3, N222K” value [6] was 2, the “EC50 fold change compared to wild type NL4-3, T174I” value [6] was 15 and the “EC50 fold change compared to wild type NL4-3, Y99H” value [6] was 2. The IC50 [7] was 0.17 ± 0.02 µM and the IC50 [8] was 0.42 ± 0.07 µM.
